This note sets out measurements from ChEMBL document CHEMBL1201862, “PubChem BioAssay data set” (2004).

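96-well plates; 48 h exposure; 5 concentrations. Endpoints by linear interpolation between flanking doses. Not reached: highest tested concentration assigned. GI50 = concentration required for 50% inhibition of growth.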 The source made the active and inactive calls. No stated cut-off is given here; in the data, active = GI50 up to about 1.1 µM and inactive = higher.

Some test systems named below: 786-0; A498; ACHN; CCRF-CEM; EKVX; HL-60; HOP-62; MDA-MB-231; MDA-N; NCI-H460; NCI-H522; PC-3; RXF 393; SF-268; SK-MEL-28; SNB-19; SNB-75; SR; HCC 2998; LOX IMVI.
Common to all, as to assay: NCI tumour cell line growth inhibition, 48 h

For `Cc1cc2c(cc1-c1cc3c(cc1C)C(C(C)C)=C(O)C(=O)/C3=C\Nc1c(C)n(C)n(-c3ccccc3)c1=O)/C(=C/Nc1c(C)n(C)n(-c3ccccc3)c1=O)C(=O)C(O)=C2C(C)C`, the GI50 with 786-0 was 62.1 µM (inactive); in the test with A498, > 100 µM (inactive); in the test with ACHN, 47.5 µM (inactive); with CCRF-CEM, 33 µM (inactive); with EKVX, 76.9 µM (inactive); in the test with HL-60 it was 33.9 µM (inactive). The GI50 is 70.1 µM (inactive) in the test with HOP-62; 42.1 µM (inactive) in the test with MDA-MB-231; > 100 µM (inactive) in the test with MDA-N; 54.1 µM (inactive) in the test on NCI-H460; > 100 µM (inactive) in the test with NCI-H522; 66.2 µM (inactive) in the test on PC-3. The GI50 is 26.1 µM (inactive) in the test on RXF 393; > 100 µM (inactive) with SF-268; > 100 µM (inactive) with SK-MEL-28; > 100 µM (inactive) in the test on SNB-19; > 100 µM (inactive) in the test on SNB-75; 39.2 µM (inactive) with SR.

For `CCOC(=O)[C@H](CO)NC1=C(Cl)C(=O)c2c(O)ccc(O)c2C1=O`, the GI50 in the test on 786-0, in the test on ACHN, with CCRF-CEM, in the test on EKVX, with HCC 2998 and in the test on HL-60 was > 10 µM (inactive) throughout. Also, the GI50 in the test on HOP-62, with LOX IMVI, in the test with MDA-MB-231, in the test with MDA-N, with NCI-H460 and in the test on NCI-H522 was > 10 µM (inactive) throughout. For the same molecule, the GI50 in the test on PC-3, in the test on RXF 393, with SF-268, in the test with SK-MEL-28, in the test with SNB-19 and in the test with SNB-75 was > 10 µM (inactive) each time. Moreover, the GI50 in the test on SR was 5.22 µM (inactive).

As for `C=C(C)[C@H]1[C@@H]2OC(=O)[C@H]1[C@]1(O)C[C@H]3OC34C(=O)O[C@H]2[C@@]41C.CC(C)(O)[C@H]1[C@@H]2OC(=O)[C@H]1[C@]1(O)C[C@H]3OC34C(=O)O[C@H]2[C@@]41C` (some centres undefined), the GI50 with 786-0, in the test on A498, in the test on ACHN, with CCRF-CEM, in the test on EKVX and in the test with HCC 2998 was > 100 µM (inactive) throughout. The GI50 in the test with HL-60, with HOP-62, with LOX IMVI, in the test with MDA-MB-231, with MDA-N and with NCI-H460 was > 100 µM (inactive) throughout. Moreover, the GI50 in the test with NCI-H522, in the test on PC-3, in the test with RXF 393, with SF-268, with SK-MEL-28 and with SNB-19 was > 100 µM (inactive) in each case. Also, in the test with SNB-75, the GI50 is > 100 µM (inactive).

With `O=c1[nH]c2ccccc2c2nc3ccccc3n12`, the GI50 in the test on 786-0 was 81.8 µM (inactive); in the test on A498 it was > 100 µM (inactive); in the test on ACHN, 7.03 µM (inactive); in the test with CCRF-CEM it was > 100 µM (inactive); in the test on EKVX, 3.89 µM (inactive); with HCC 2998, 27.9 µM (inactive). Also, the GI50 with HL-60 was > 100 µM (inactive); in the test with HOP-62 it was 38.1 µM (inactive); with LOX IMVI, > 100 µM (inactive); in the test on MDA-MB-231 it was 16.9 µM (inactive); in the test with MDA-N it was > 100 µM (inactive); in the test with NCI-H460, 2.54 µM (inactive). Further, the GI50 in the test on NCI-H522 was 7.21 µM (inactive); in the test on PC-3, > 100 µM (inactive); in the test on RXF 393 it was 28.7 µM (inactive); in the test with SF-268, 53.7 µM (inactive); with SNB-19 it was > 100 µM (inactive).

For the molecule `O=[N+]([O-])c1cccc(-c2csc(N/N=C3\NC/C(=C/c4ccc5c(c4)OCO5)S3)n2)c1`, the GI50 is 38.4 µM (inactive) in the test on 786-0; 15.2 µM (inactive) in the test on A498; 28.9 µM (inactive) in the test with ACHN; 35.4 µM (inactive) in the test on CCRF-CEM; 9.02 µM (inactive) in the test with EKVX; 31.9 µM (inactive) in the test with HCC 2998. For the same molecule, the GI50 in the test on HL-60 is 26.6 µM (inactive); in the test on HOP-62, 25.2 µM (inactive); in the test with LOX IMVI, 50.7 µM (inactive); in the test on MDA-MB-231 it was 35.1 µM (inactive); with MDA-N, 30.4 µM (inactive); with NCI-H460, 33.5 µM (inactive). The GI50 with NCI-H522 was 18.2 µM (inactive); with PC-3, 21.5 µM (inactive); in the test with RXF 393 it was 22.6 µM (inactive); with SF-268, 23.3 µM (inactive); in the test with SNB-19, 20.5 µM (inactive); in the test with SNB-75, 15.4 µM (inactive).

As for `CCn1c2ccccc2c2cc(NC(=O)c3c(C)nc(O)nc3NCCNCCO)ccc21`, the GI50 in the test on 786-0, with A498, in the test with ACHN, in the test on CCRF-CEM, in the test with EKVX and with HCC 2998 was > 100 µM (inactive) throughout. Moreover, the GI50 in the test with HL-60 was 1.58 µM (inactive); in the test on HOP-62 it was > 100 µM (inactive); in the test with LOX IMVI, > 100 µM (inactive); in the test on MDA-MB-231, > 100 µM (inactive); in the test on MDA-N, > 100 µM (inactive); in the test on NCI-H460, > 100 µM (inactive). Further, the GI50 in the test on NCI-H522, in the test with PC-3, in the test on RXF 393, in the test with SF-268, with SK-MEL-28 and with SNB-19 was > 100 µM (inactive) each time. Moreover, in the test on SNB-75, the GI50 was > 100 µM (inactive).

With `CC(C)N1CC2CN(Cc3ccccc3)CC(C1)C2=O`, the GI50 was > 100 µM (inactive) in the test on 786-0; > 100 µM (inactive) in the test on ACHN; 89.1 µM (inactive) in the test on CCRF-CEM; > 100 µM (inactive) with HCC 2998; > 100 µM (inactive) in the test with HL-60; > 100 µM (inactive) in the test on HOP-62. In addition, the GI50 in the test on LOX IMVI, in the test on MDA-MB-231, in the test on MDA-N, with NCI-H460, in the test on NCI-H522 and in the test with PC-3 was > 100 µM (inactive) throughout. Moreover, the GI50 with RXF 393, with SF-268, in the test on SK-MEL-28, in the test with SNB-19, with SNB-75 and with SR was > 100 µM (inactive) each time.

Regarding `CN1c2ccccc2S(=O)(=O)n2c(CCc3ccccc3)nnc21`, the GI50 in the test with 786-0 is 54.1 µM (inactive); in the test on A498, 39.1 µM (inactive); with ACHN, > 100 µM (inactive); in the test with CCRF-CEM, > 100 µM (inactive); in the test on EKVX it was > 100 µM (inactive); in the test with HCC 2998 it was > 100 µM (inactive). Also, the GI50 in the test with HL-60 was > 100 µM (inactive); with HOP-62, 41.2 µM (inactive); in the test on LOX IMVI it was > 100 µM (inactive); with MDA-MB-231, > 100 µM (inactive); in the test on MDA-N, > 100 µM (inactive); in the test with NCI-H460, 98.6 µM (inactive). In addition, the GI50 in the test on NCI-H522 was 43.9 µM (inactive); in the test on PC-3, > 100 µM (inactive); with RXF 393, > 100 µM (inactive); in the test with SF-268, > 100 µM (inactive); in the test on SK-MEL-28 it was > 100 µM (inactive); with SNB-19, > 100 µM (inactive).

On to `Sc1nnc(NNc2ccccc2)n1Nc1ccccc1`, for which the GI50 in the test on 786-0 was > 71 µM (inactive); with A498, 39.4 µM (inactive); in the test with ACHN, 0.824 µM (active); in the test on CCRF-CEM, 8.97 µM (inactive); in the test on EKVX, > 87.3 µM (inactive); with HCC 2998, 1.78 µM (inactive). In addition, the GI50 is 0.04 µM (active) in the test with HL-60; 64.3 µM (inactive) in the test on HOP-62; 44.8 µM (inactive) in the test with MDA-MB-231; 2.05 µM (inactive) with MDA-N; 0.146 µM (active) in the test on NCI-H460; 42.5 µM (inactive) with NCI-H522. For the same molecule, the GI50 in the test with PC-3 is 44.8 µM (inactive); in the test with RXF 393, 1.78 µM (inactive); in the test on SF-268, > 82.4 µM (inactive); with SK-MEL-28, > 100 µM (inactive); in the test with SNB-19, > 75.9 µM (inactive); with SNB-75, > 44.7 µM (inactive).

Consider `CN(C)/C=N\c1nncc2[nH]nnc12`, for which the GI50 with 786-0 was > 100 µM (inactive); in the test on A498 it was > 100 µM (inactive); in the test with ACHN, > 100 µM (inactive); in the test on CCRF-CEM, 26.7 µM (inactive); with EKVX, > 100 µM (inactive); in the test with HL-60, 5.97 µM (inactive). Further, the GI50 in the test with HOP-62, with MDA-MB-231, with MDA-N, in the test with NCI-H460, with PC-3 and in the test on RXF 393 was > 100 µM (inactive) throughout. Besides, the GI50 in the test with SF-268, with SK-MEL-28, in the test with SNB-19, in the test on SNB-75 and with SR was > 100 µM (inactive) in each case.

Turning to `COc1ccc(NC(=S)NC(=O)c2ccc3c(c2)Sc2ccccc2O3)c([N+](=O)[O-])c1`, the GI50 in the test on 786-0 is 17.9 µM (inactive); in the test with A498, 18.5 µM (inactive); in the test on ACHN, 21.4 µM (inactive); with CCRF-CEM it was 36.4 µM (inactive); with HL-60, 32.7 µM (inactive); with HOP-62, 33 µM (inactive). The GI50 in the test on LOX IMVI is > 100 µM (inactive); in the test on MDA-MB-231, 22.9 µM (inactive); with MDA-N, 44.5 µM (inactive); in the test with NCI-H460 it was 43.9 µM (inactive); in the test on NCI-H522, 14.9 µM (inactive); in the test with PC-3, 43.1 µM (inactive). Moreover, the GI50 in the test on RXF 393 was 19.3 µM (inactive); with SF-268, 19.4 µM (inactive); in the test with SK-MEL-28, 40.1 µM (inactive); with SNB-19, 21.9 µM (inactive); in the test with SNB-75, 8.36 µM (inactive); with SR it was 28.8 µM (inactive).
